Molecular target: Superoxide dismutase [Cu-Zn] (Homo sapiens) (UniProt P00441)
Experiment: Binding affinity to human EGFP-tagged SOD1 A4V mutant mRNA expressed in mouse Neuro2a cells assessed as reduction in cells bearing inclusions at 25 uM measured 72 hrs post transfection by Hoechst33342 staining-based epifluorescence microscopic analysis (reference value: 19 to 21%)
Format: cell-based
Parameters: scale not given: the % may be the effect or the level left

Sequence of Superoxide dismutase [Cu-Zn] (Homo sapiens) (P00441 whole entry): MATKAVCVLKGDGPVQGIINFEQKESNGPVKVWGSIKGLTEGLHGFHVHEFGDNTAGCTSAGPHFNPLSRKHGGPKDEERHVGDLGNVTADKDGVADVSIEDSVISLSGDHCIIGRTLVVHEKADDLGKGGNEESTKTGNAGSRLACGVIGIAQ

Activity [%] | Compound
17 | CC(=O)Oc1c(C)c(C)c2c(c1Cn1cc(CCC(=O)NCCN(CC(=O)NCCN(CC(=O)NCCN(CC(=O)NCCN(CC(=O)NCCN(CC(=O)NCCN(CC(=O)NCCN(CC(=O)NCCN(CC(=O)NCCN(CC(N)=O)C(=O)Cn3cnc4c(=O)[nH]c(N)nc43)C(=O)Cn3ccc(N)nc3=O)C(=O)Cn3cnc4c(N)ncnc43)C(=O)Cn3ccc(N)nc3=O)C(=O)Cn3cnc4c(=O)[nH]c(N)nc43)C(=O)Cn3cnc4c(N)ncnc43)C(=O)Cn3ccc(N)nc3=O)C(=O)Cn3cc(C)c(=O)[nH]c3=O)C(=O)Cn3cc(C)c(=O)[nH]c3=O)nn1)CCC(C)(CCCC(C)CCCC(C)CCCC(C)C)O2 (centres undefined)
14 | O=C(CS)N[C@@H]1CCCC[C@H]1NC(=O)CS (racemic)
14 | CCOC(=O)C1(C)CCc2c(Cn3cc(CCC(=O)NCCN(CC(=O)NCCN(CC(=O)NCCN(CC(=O)NCCN(CC(=O)NCCN(CC(=O)NCCN(CC(=O)NCCN(CC(=O)NCCN(CC(=O)NCCN(CC(N)=O)C(=O)Cn4cnc5c(=O)[nH]c(N)nc54)C(=O)Cn4ccc(N)nc4=O)C(=O)Cn4cnc5c(N)ncnc54)C(=O)Cn4ccc(N)nc4=O)C(=O)Cn4cnc5c(=O)[nH]c(N)nc54)C(=O)Cn4cnc5c(N)ncnc54)C(=O)Cn4ccc(N)nc4=O)C(=O)Cn4cc(C)c(=O)[nH]c4=O)C(=O)Cn4cc(C)c(=O)[nH]c4=O)nn3)c(OC(C)=O)c(C)c(C)c2O1 (centres undefined)
16 | Cc1c(C)c2c(c(C)c1O)CCC(C)(C(=O)NCCN(CC(=O)NCCN(CC(=O)NCCN(CC(=O)NCCN(CC(=O)NCCN(CC(=O)NCCN(CC(=O)NCCN(CC(=O)NCCN(CC(=O)NCCN(CC(N)=O)C(=O)Cn1cnc3c(=O)[nH]c(N)nc31)C(=O)Cn1ccc(N)nc1=O)C(=O)Cn1cnc3c(N)ncnc31)C(=O)Cn1ccc(N)nc1=O)C(=O)Cn1cnc3c(=O)[nH]c(N)nc31)C(=O)Cn1cnc3c(N)ncnc31)C(=O)Cn1ccc(N)nc1=O)C(=O)Cn1cc(C)c(=O)[nH]c1=O)C(=O)Cn1cc(C)c(=O)[nH]c1=O)O2 (centres undefined)

— ChEMBL document CHEMBL3774353, “Efficacy of peptide nucleic acid and selected conjugates against specific cellular pathologies of amyotrophic lateral sclerosis” (Bioorg Med Chem, 2016)
